SMILES strings stand for the structures. A value given as a limit tells only on which side of the number the result lay.

The test system of the first test is HCV replicon. Nature of the test: HCV replicon assay (FRET or luciferase reporter). It counts as cell-based. As to conditions: Hepatitis C virus, one of the methods described, class symbol. From the text: To perform the HCV FRET screening assay, 96-well cell culture plates were used, The FRET peptide (Anaspec, Inc.) (Taliani et al., Anal. Biochem., 240:60-67 (1996)) contains a fluorescence donor, EDANS, near one end of the peptide and an acceptor, DABCYL, near the other end. The fluorescence of the peptide is quenched by […] resonance energy transfer (RET) between the donor and the acceptor, but as the NS3 protease cleaves the peptide the products are released from RET quenching and the fluorescence of the donor becomes apparent. The assay reagent was made as follows: 5× cell Luciferase cell culture lysis reagent from Promega (#E153A) diluted to 1× with dH2O, NaCl added to 150 mM final, the FRET peptide diluted to 20 μM final from a 2 mM stock.
To prepare plates, HCV replicon cells, with or without a Renilla luciferase reporter gene, were trypsinized and placed into each well of a 96-well plate with titrated test compounds added in columns 3 through 12; columns 1 and 2 contained a control compound (HCV protease inhibitor), and the bottom row contained cells without compound. The plates were then placed in a CO2 incubator at 37° C.
Subsequent to addition of the test compounds described above (FRET Assay Preparation), at various times the plate was removed and Alamar blue solution (Trek Diagnostics, #00-100) was added per well as a measure of cellular toxicity. After reading in a CYTOFLUOR® 4000 instrument (PE Biosystems), plates were rinsed with PBS and then used for FRET assay by the addition of 30 ul of the FRET peptide assay reagent described above (FRET Assay Preparation) per well. The plate was then placed into the CYTOFLUOR® 4000 instrument which had been set to 340 excite/490 emission, automatic mode for 20 cycles and the plate read in a kinetic mode. Typically, the signal to noise using an endpoint analysis after the reads was at least three-fold. Alternatively, after Alamar blue reading, plates were rinsed with PBS, 50 ul of DMEM (high glucose) without phenol red was added and plates were then used for luciferase assay using the Promega DUAL-GLO® Luciferase Assay System.
Compound analysis was determined by quantification of the relative HCV replicon inhibition and the relative cytotoxicity values. To calculate cytoxicity values, the average Alamar Blue fluorescence signals from the control wells were set as 100% non-toxic. The individual signals in each of the compound test wells were then divided by the average control signal and multiplied by 100% to determine […]. To calculate the HCV replicon inhibition values, an average background value was obtained from the two wells containing the highest amount of HCV protease inhibitor at the end of the assay period. These numbers were similar to those obtained from naïve Huh-7 cells.
The background numbers were then subtracted from the average signal obtained from the control wells and this number was used as 100% activity. The individual signals in each of the compound test wells were then divided by the averaged control values after background subtraction and multiplied by 100% to determine percent activity. EC50 values for a protease inhibitor titration were calculated as the concentration which caused a 50% reduction in FRET or luciferase activity. The two numbers generated for the compound plate, percent cytoxicity and percent activity were used to determine compounds of interest for further analysis.
The HCV replicon luciferase assay was developed to monitor the inhibitory effects of compounds described in the disclosure on HCV viral replication. Utilization of a replicon luciferase reporter assay was first described by Krieger et al (Krieger, N. et al., J. Virology, 75(10):4614-4624 (2001)). HUH-7 cells, constitutively expressing the HCV replicon, were grown in Dulbecco's Modified Eagle Media (DMEM) (Gibco-BRL) containing 10% Fetal calf serum (FCS) (Sigma) and 1 mg/ml G418 (Gibco-BRL). […]
(A replicon is a self-replicating genome or part of one, used to study replication in cells.)
For orientation: EC50 means the concentration giving half of the maximal effect. Read a low EC50 as greater potency. In turn, `COc1ccc2c(c1)C=C(c1c(C(=O)N3C[C@@H](C)O[C@@H](C)C3)cnn1-c1cc[nH]c(=O)c1)Cn1c-2c(C2CCCCC2)c2ccc(C(=O)NS(=O)(=O)C(C)C)cc21` registered an EC50 greater than 1000 nM.

`COc1ccc2c(c1)C=C(c1c(C(=O)N3C[C@@H](C)O[C@@H](C)C3)cnn1-c1ccncc1)Cn1c-2c(C2CCCCC2)c2ccc(C(=O)NS(=O)(=O)C(C)C)cc21` gave an EC50 of 1.7 to 500 nM.

Compound `COc1ccc2c(c1)C=C(c1c(C(=O)N3C[C@@H](C)O[C@@H](C)C3)cnn1-c1ccnc(C)c1)Cn1c-2c(C2CCCCC2)c2ccc(C(=O)NS(=O)(=O)C(C)C)cc21` had an EC50 of 1.7 to 500 nM.

Take `COc1ccc2c(c1)C=C(c1c(C(=O)N3C[C@@H](C)O[C@@H](C)C3)cnn1-c1cccnc1)Cn1c-2c(C2CCCCC2)c2ccc(C(=O)NS(=O)(=O)C(C)C)cc21`: the EC50 lay in the range of 1.7 to 500 nM.

Turning to `COc1ccc2c(c1)C=C(c1c(C(=O)N3C[C@@H](C)O[C@@H](C)C3)cnn1-c1nc3ccccc3[nH]1)Cn1c-2c(C2CCCCC2)c2ccc(C(=O)NS(=O)(=O)C(C)C)cc21`, the EC50 lay in the range of 1.7 to 500 nM.

In turn, `COc1ccc2c(c1)C=C(c1c(C(=O)N3C[C@@H](C)O[C@@H](C)C3)cnn1-c1cnccn1)Cn1c-2c(C2CCCCC2)c2ccc(C(=O)NS(=O)(=O)C(C)C)cc21` had an EC50 of 1.7 to 500 nM.

Regarding `COc1ccc2c(c1)C=C(c1c(C(=O)N3CCOCC3)noc1C1CC1)Cn1c-2c(C2CCCCC2)c2ccc(C(=O)NS(=O)(=O)N(C)C)cc21`, the EC50 lay within 1.7 to 500 nM.

With `COc1ccc2c(c1)C=C(c1c(C(=O)N3C[C@@H](C)O[C@@H](C)C3)noc1C1CC1)Cn1c-2c(C2CCCCC2)c2ccc(C(=O)NS(=O)(=O)N(C)C)cc21`, the EC50 fell in the range of 1.7 to 500 nM.

`COC[C@@H]1CN(C(=O)c2cnn(C3CCC3)c2C2=Cc3cc(OC)ccc3-c3c(C4CCCCC4)c4ccc(C(=O)NS(=O)(=O)C(C)C)cc4n3C2)CCO1` came in with an EC50 of 1.7 to 500 nM.

Regarding `COc1ccc2c(c1)C=C(c1c(C(=O)N3CC4CCC(C3)O4)cnn1C1CCC1)Cn1c-2c(C2CCCCC2)c2ccc(C(=O)NS(=O)(=O)C(C)C)cc21`, the EC50 is 1.7 to 500 nM.

The test is the same for the next values; noted with them: Hepatitis C virus, one of the methods described, exact value.
Compound `COc1ccc2c(c1)C=C(c1c(C(=O)N3C[C@@H](C)O[C@@H](C)C3)cnn1-c1cc[nH]c(=O)c1)Cn1c-2c(C2CCCCC2)c2ccc(C(=O)NS(=O)(=O)C(C)C)cc21` yielded an EC50 greater than 1000 nM.

In the case of `COc1ccc2c(c1)C=C(c1c(C(=O)N3C[C@@H](C)O[C@@H](C)C3)cnn1-c1nc3ccccc3[nH]1)Cn1c-2c(C2CCCCC2)c2ccc(C(=O)NS(=O)(=O)C(C)C)cc21`, the EC50 is 150 nM.

`COc1ccc2c(c1)C=C(c1c(C(=O)N3CC4CCC(C3)O4)cnn1C1CCC1)Cn1c-2c(C2CCCCC2)c2ccc(C(=O)NS(=O)(=O)C(C)C)cc21` had an EC50 of 10 nM.

The target of another test is T1, HCV NS5B (Hepatitis C virus genotype 1b, UniProt Q9WMX2).
T1 construct: The protein was expressed with an 18 amino acid C-terminal truncation to enhance the solubility; made in house; host or cells: E. coli BL21(DE3)
T1 sequence (Q9WMX2 2420-2992): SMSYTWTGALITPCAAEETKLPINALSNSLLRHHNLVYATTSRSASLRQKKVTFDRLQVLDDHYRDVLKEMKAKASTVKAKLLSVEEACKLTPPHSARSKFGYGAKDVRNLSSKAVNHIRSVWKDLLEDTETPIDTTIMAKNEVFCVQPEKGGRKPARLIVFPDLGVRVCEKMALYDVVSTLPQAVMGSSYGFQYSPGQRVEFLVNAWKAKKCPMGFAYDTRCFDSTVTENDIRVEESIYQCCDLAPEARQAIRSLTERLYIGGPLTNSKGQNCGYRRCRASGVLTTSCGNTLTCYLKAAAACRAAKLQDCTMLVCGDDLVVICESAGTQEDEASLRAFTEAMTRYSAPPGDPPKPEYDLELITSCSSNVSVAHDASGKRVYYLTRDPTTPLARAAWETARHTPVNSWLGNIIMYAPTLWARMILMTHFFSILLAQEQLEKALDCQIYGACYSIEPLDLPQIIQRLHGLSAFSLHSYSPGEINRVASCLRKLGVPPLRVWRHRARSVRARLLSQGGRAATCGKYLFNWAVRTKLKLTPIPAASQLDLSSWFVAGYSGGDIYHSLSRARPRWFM
Nature of the test: Modified HCV NS5B RdRp enzyme assay (preincubation protocol). It counts as biochemical. As to conditions: class symbol. Here is the method: The cDNA encoding the NS5B protein of HCV, genotype 1b, was cloned into the pET21a expression vector. The protein was expressed with an 18 amino acid C-terminal truncation to enhance the solubility. The E. coli competent cell line BL21(DE3) was used for expression of the protein. Cultures were grown at 37° C. for ˜4 hours until the cultures reached an optical density of 2.0 at 600 nm. The cultures were cooled to 20° C. and induced with 1 mM IPTG. Fresh ampicillin was added to a final concentration of 50 μg/ml and the cells were grown overnight at 20° C.
Cell pellets (3 L) were lysed for purification to yield 15-24 mgs of purified NS5B. The lysis buffer consisted of 20 mM Tris-HCl, pH 7.4, 500 mM NaCl, 0.5% triton X-100, 1 mM DTT, 1 mM EDTA, 20% glycerol, 0.5 mg/ml lysozyme, 10 mM MgCl2, 15 ug/ml deoxyribonuclease I, and Complete TM protease inhibitor tablets (Roche). After addition of the lysis buffer, frozen cell pellets were resuspended using a tissue homogenizer. To reduce the viscosity of the sample, aliquots of the lysate were sonicated on ice using a microtip attached to a Branson sonicator. The sonicated lysate was centrifuged at 100,000×g for 1 hr at 4° C. and filtered through a 0.2 μm filter unit (Corning).
The protein was purified using three sequential chromatography steps: Heparin sepharose CL-6B, polyU sepharose 4B, and […] SP sepharose (Pharmacia). The chromatography buffers were identical to the lysis buffer but contained no lysozyme, deoxyribonuclease I, MgCl2 or protease inhibitor and the NaCl concentration of the buffer was adjusted according to the requirements for charging the protein onto the column. Each column was eluted with a NaCl gradient which varied in length from 5-50 column volumes depending on the column type. After the final chromatography step, the resulting purity of the enzyme is >90% based on SDS-PAGE analysis. The enzyme was aliquoted and stored at −80° C.
HCV RdRp genotype 1b assays were run in a final volume of 60 μl in 96 well plates (Costar 3912). The assay buffer is composed of 20 mM Hepes, pH 7.5, 2.5 mM KCl, 2.5 mM MgCl2, 1 mM DTT, 1.6 U RNAse inhibitor (Promega N2515), 0.1 mg/ml BSA (Promega R3961), and 2% glycerol. All compounds were serially diluted (3-fold) in DMSO and diluted further in water such that the final concentration of DMSO in the assay was 2%. HCV RdRp genotype 1b enzyme was used at a final concentration of 28 nM. A polyA template was used at 6 nM, and a biotinylated oligo-dT12 primer was used at 180 nM final concentration. Template was obtained commercially (Amersham 27-4110). Biotinylated primer was prepared by Sigma Genosys. 3H-UTP was used at 0.6 μCi (0.29 μM total UTP). Reactions were initiated by the addition of enzyme, incubated at 30° C. for 60 min, and stopped by adding 25 μl of 50 mM EDTA containing SPA beads (4 μg/μl, Amersham RPNQ 0007). Plates were read on a Packard TOPCOUNT® NXT after >1 hr incubation at room temperature.
A modified enzyme assay was performed essentially as described for the standard enzyme assay except for the following: The biotinylated oligo dT12 primer was precaptured on streptavidin-coated SPA beads by mixing primer and beads in assay buffer and incubating at room temperature for one hour. Unbound primer was removed after centrifugation. The primer-bound beads were resuspended in 20 mM Hepes buffer, pH 7.5 and used in the assay at final concentrations of 20 nM primer and 0.67 μg/μl beads. Order of addition in the assay: enzyme (14 nM) was added to diluted compound followed by the addition of a mixture of template (0.2 nM), 3H-UTP (0.6 μCi, 0.29 μM), and primer-bound beads, to initiate the reaction; concentrations given are final. Reactions were allowed to proceed for 4 hours at 30° C.
IC50 values for compounds were determined using seven different [I]. IC50 values were calculated from the inhibition using the formula y=A+((B−A)/(1+((C/x)^D))).
Usually IC50 stands for the concentration that inhibits the measured activity by half. `COc1ccc2c(c1)C=C(c1c(C(=O)N3C[C@@H](C)O[C@@H](C)C3)cnn1-c1cc[nH]c(=O)c1)Cn1c-2c(C2CCCCC2)c2ccc(C(=O)NS(=O)(=O)C(C)C)cc21` came in with an IC50 of 1.7 to 500 nM.

Compound `COc1ccc2c(c1)C=C(c1c(C(=O)N3C[C@@H](C)O[C@@H](C)C3)cnn1-c1ccncc1)Cn1c-2c(C2CCCCC2)c2ccc(C(=O)NS(=O)(=O)C(C)C)cc21` registered an IC50 of 1.7 to 500 nM.

As for `COc1ccc2c(c1)C=C(c1c(C(=O)N3C[C@@H](C)O[C@@H](C)C3)cnn1-c1ccnc(C)c1)Cn1c-2c(C2CCCCC2)c2ccc(C(=O)NS(=O)(=O)C(C)C)cc21`, the IC50 lay in the range of 1.7 to 500 nM.

For the compound `COc1ccc2c(c1)C=C(c1c(C(=O)N3C[C@@H](C)O[C@@H](C)C3)cnn1-c1cccnc1)Cn1c-2c(C2CCCCC2)c2ccc(C(=O)NS(=O)(=O)C(C)C)cc21`, the IC50 was 1.7 to 500 nM.

Turning to `COc1ccc2c(c1)C=C(c1c(C(=O)N3C[C@@H](C)O[C@@H](C)C3)cnn1-c1nc3ccccc3[nH]1)Cn1c-2c(C2CCCCC2)c2ccc(C(=O)NS(=O)(=O)C(C)C)cc21`, the IC50 is 1.7 to 500 nM.

As to `COc1ccc2c(c1)C=C(c1c(C(=O)N3C[C@@H](C)O[C@@H](C)C3)cnn1-c1cnccn1)Cn1c-2c(C2CCCCC2)c2ccc(C(=O)NS(=O)(=O)C(C)C)cc21`, the 50% inhibitory concentration (IC50) is 1.7 to 500 nM.

`COc1ccc2c(c1)C=C(c1c(C(=O)N3CCOCC3)noc1C1CC1)Cn1c-2c(C2CCCCC2)c2ccc(C(=O)NS(=O)(=O)N(C)C)cc21` yielded an IC50 of 1.7 to 500 nM.

`COc1ccc2c(c1)C=C(c1c(C(=O)N3C[C@@H](C)O[C@@H](C)C3)noc1C1CC1)Cn1c-2c(C2CCCCC2)c2ccc(C(=O)NS(=O)(=O)N(C)C)cc21` displayed an IC50 of 1.7 to 500 nM.

Consider `COC[C@@H]1CN(C(=O)c2cnn(C3CCC3)c2C2=Cc3cc(OC)ccc3-c3c(C4CCCCC4)c4ccc(C(=O)NS(=O)(=O)C(C)C)cc4n3C2)CCO1`, for which the IC50 lay within 1.7 to 500 nM.

As to `COc1ccc2c(c1)C=C(c1c(C(=O)N3CC4CCC(C3)O4)cnn1C1CCC1)Cn1c-2c(C2CCCCC2)c2ccc(C(=O)NS(=O)(=O)C(C)C)cc21`, the IC50 lay within 1.7 to 500 nM.

The test is the same for the next values; noted with them: exact value.
`COc1ccc2c(c1)C=C(c1c(C(=O)N3C[C@@H](C)O[C@@H](C)C3)cnn1-c1cc[nH]c(=O)c1)Cn1c-2c(C2CCCCC2)c2ccc(C(=O)NS(=O)(=O)C(C)C)cc21` had an IC50 of 8.9 nM.

`COc1ccc2c(c1)C=C(c1c(C(=O)N3C[C@@H](C)O[C@@H](C)C3)cnn1-c1nc3ccccc3[nH]1)Cn1c-2c(C2CCCCC2)c2ccc(C(=O)NS(=O)(=O)C(C)C)cc21` gave an IC50 of 9 nM.

`COc1ccc2c(c1)C=C(c1c(C(=O)N3CC4CCC(C3)O4)cnn1C1CCC1)Cn1c-2c(C2CCCCC2)c2ccc(C(=O)NS(=O)(=O)C(C)C)cc21` returned an IC50 of 3.9 nM.

The values above are taken from patent publication US8133884B2, “Compounds for the treatment of hepatitis C” (priority 2008, dated 2012).
